Source: the NIST ThermoML archive (doi:10.1021/je0601457)
Numbers after ± are expanded uncertainties.

Experiment: xn = mol fraction of the nth substance listed
Conditions: linear displacement

For `CC(=O)c1cnccn1` [2-acetylpyrazine] + O=C=O, which mass density (294.75 K, Liquid, x1 = 0.007) is on record?
Its mass density is 799 ± 32 kg/m3.

What about the mass density (296.15 K, Liquid, x1 = 0.025) of the same compound?
Its mass density is 758 ± 30 kg/m3.

And the mass density (302.35 K, Liquid, x1 = 0.025)?
Its mass density is 790 ± 32 kg/m3.

And the mass density (302.35 K, Liquid, x1 = 0.054)?
Its mass density is 922 ± 37 kg/m3.

What about the mass density (303.35 K, Liquid, x1 = 0.007) of the same compound?
Its mass density is 724 ± 29 kg/m3.

And the mass density (306.25 K, Liquid, x1 = 0.081)?
The mass density was 946 ± 38 kg/m3.

What about the mass density (309.45 K, Liquid, x1 = 0.138) of the same compound?
Its mass density is 1276 ± 53 kg/m3.

And the mass density (310.35 K, Liquid, x1 = 0.054)?
Its mass density is 837 ± 34 kg/m3.

And the mass density (311.05 K, Liquid, x1 = 0.161)?
The mass density was 938 ± 38 kg/m3.

And the mass density (312.75 K, Gas, x1 = 0.007)?
Its mass density is 601 ± 24 kg/m3.

What about the mass density (312.95 K, Liquid, x1 = 0.114) of the same compound?
Its mass density is 1092 ± 44 kg/m3.

And the mass density (313.15 K, Liquid, x1 = 0.194)?
The mass density was 954 ± 44 kg/m3.

And the mass density (313.65 K, Gas, x1 = 0.081)?
Its mass density is 911 ± 37 kg/m3.

What about the mass density (314.35 K, Liquid, x1 = 0.138) of the same compound?
Its mass density is 1258 ± 53 kg/m3.

And the mass density (314.45 K, Gas, x1 = 0.025)?
The mass density was 815 ± 33 kg/m3.

And the mass density (321.25 K, Gas, x1 = 0.054)?
The mass density was 785 ± 31 kg/m3.

And the mass density (321.45 K, Liquid, x1 = 0.161)?
The mass density was 918 ± 41 kg/m3.

And the mass density (321.95 K, Liquid, x1 = 0.194)?
Its mass density is 939 ± 38 kg/m3.

And the mass density (322.05 K, Liquid, x1 = 0.295)?
The mass density was 1090 ± 45 kg/m3.

What about the mass density (322.25 K, Liquid, x1 = 0.138) of the same compound?
Its mass density is 1238 ± 50 kg/m3.

What about the mass density (323.05 K, Liquid, x1 = 0.114) of the same compound?
Its mass density is 1061 ± 46 kg/m3.

What about the mass density (332.55 K, Liquid, x1 = 0.448) of the same compound?
The mass density was 1063 ± 43 kg/m3.

What about the mass density (332.75 K, Liquid, x1 = 0.138) of the same compound?
Its mass density is 1216 ± 50 kg/m3.

What about the mass density (332.85 K, Gas, x1 = 0.054) of the same compound?
Its mass density is 739 ± 30 kg/m3.

And the mass density (333.45 K, Liquid, x1 = 0.194)?
Its mass density is 920 ± 37 kg/m3.

And the mass density (333.45 K, Liquid, x1 = 0.295)?
The mass density was 1014 ± 41 kg/m3.

What about the mass density (334.45 K, Gas, x1 = 0.081) of the same compound?
The mass density was 856 ± 35 kg/m3.

What about the mass density (334.95 K, Liquid, x1 = 0.114) of the same compound?
The mass density was 1023 ± 41 kg/m3.

And the mass density (337.95 K, Liquid, x1 = 0.161)?
The mass density was 887 ± 36 kg/m3.

What about the mass density (340.45 K, Gas, x1 = 0.025) of the same compound?
The mass density was 718 ± 29 kg/m3.

And the mass density (343.75 K, Liquid, x1 = 0.295)?
Its mass density is 998 ± 40 kg/m3.

And the mass density (345.75 K, Liquid, x1 = 0.138)?
The mass density was 1187 ± 48 kg/m3.

What about the mass density (346.35 K, Liquid, x1 = 0.944) of the same compound?
Its mass density is 1013 ± 41 kg/m3.

What about the mass density (348.05 K, Liquid, x1 = 0.448) of the same compound?
The mass density was 1037 ± 41 kg/m3.

And the mass density (348.55 K, Liquid, x1 = 0.114)?
The mass density was 993 ± 40 kg/m3.

What about the mass density (348.75 K, Gas, x1 = 0.054) of the same compound?
The mass density was 702 ± 28 kg/m3.

And the mass density (351.15 K, Liquid, x1 = 0.194)?
The mass density was 892 ± 36 kg/m3.

What about the mass density (353.55 K, Gas, x1 = 0.081) of the same compound?
The mass density was 807 ± 33 kg/m3.

What about the mass density (353.75 K, Liquid, x1 = 0.161) of the same compound?
Its mass density is 863 ± 36 kg/m3.

What about the mass density (356.05 K, Liquid, x1 = 0.295) of the same compound?
Its mass density is 979 ± 40 kg/m3.

And the mass density (360.95 K, Liquid, x1 = 0.944)?
Its mass density is 996 ± 40 kg/m3.

What about the mass density (363.05 K, Liquid, x1 = 0.138) of the same compound?
The mass density was 1148 ± 46 kg/m3.

And the mass density (364.85 K, Liquid, x1 = 0.114)?
Its mass density is 945 ± 38 kg/m3.

What about the mass density (366.25 K, Liquid, x1 = 0.448) of the same compound?
Its mass density is 1007 ± 40 kg/m3.

What about the mass density (367.85 K, Liquid, x1 = 0.194) of the same compound?
Its mass density is 861 ± 35 kg/m3.

And the mass density (368.75 K, Liquid, x1 = 0.295)?
The mass density was 956 ± 39 kg/m3.

What about the mass density (368.85 K, Gas, x1 = 0.025) of the same compound?
The mass density was 628 ± 25 kg/m3.

And the mass density (369.55 K, Gas, x1 = 0.081)?
The mass density was 772 ± 32 kg/m3.

What about the mass density (370.85 K, Liquid, x1 = 0.161) of the same compound?
Its mass density is 832 ± 34 kg/m3.

And the mass density (371.05 K, Liquid, x1 = 0.944)?
The mass density was 992 ± 40 kg/m3.

What about the mass density (371.25 K, Gas, x1 = 0.054) of the same compound?
Its mass density is 648 ± 26 kg/m3.
